pEC50: −log10 of the molar value.
Biological target: T1, Recombinant human ASK1 kinase (Homo sapiens, UniProt Q99683)
T1 construct: purchased Invitrogen Inc
T1 sequence (Q99683 1-1374): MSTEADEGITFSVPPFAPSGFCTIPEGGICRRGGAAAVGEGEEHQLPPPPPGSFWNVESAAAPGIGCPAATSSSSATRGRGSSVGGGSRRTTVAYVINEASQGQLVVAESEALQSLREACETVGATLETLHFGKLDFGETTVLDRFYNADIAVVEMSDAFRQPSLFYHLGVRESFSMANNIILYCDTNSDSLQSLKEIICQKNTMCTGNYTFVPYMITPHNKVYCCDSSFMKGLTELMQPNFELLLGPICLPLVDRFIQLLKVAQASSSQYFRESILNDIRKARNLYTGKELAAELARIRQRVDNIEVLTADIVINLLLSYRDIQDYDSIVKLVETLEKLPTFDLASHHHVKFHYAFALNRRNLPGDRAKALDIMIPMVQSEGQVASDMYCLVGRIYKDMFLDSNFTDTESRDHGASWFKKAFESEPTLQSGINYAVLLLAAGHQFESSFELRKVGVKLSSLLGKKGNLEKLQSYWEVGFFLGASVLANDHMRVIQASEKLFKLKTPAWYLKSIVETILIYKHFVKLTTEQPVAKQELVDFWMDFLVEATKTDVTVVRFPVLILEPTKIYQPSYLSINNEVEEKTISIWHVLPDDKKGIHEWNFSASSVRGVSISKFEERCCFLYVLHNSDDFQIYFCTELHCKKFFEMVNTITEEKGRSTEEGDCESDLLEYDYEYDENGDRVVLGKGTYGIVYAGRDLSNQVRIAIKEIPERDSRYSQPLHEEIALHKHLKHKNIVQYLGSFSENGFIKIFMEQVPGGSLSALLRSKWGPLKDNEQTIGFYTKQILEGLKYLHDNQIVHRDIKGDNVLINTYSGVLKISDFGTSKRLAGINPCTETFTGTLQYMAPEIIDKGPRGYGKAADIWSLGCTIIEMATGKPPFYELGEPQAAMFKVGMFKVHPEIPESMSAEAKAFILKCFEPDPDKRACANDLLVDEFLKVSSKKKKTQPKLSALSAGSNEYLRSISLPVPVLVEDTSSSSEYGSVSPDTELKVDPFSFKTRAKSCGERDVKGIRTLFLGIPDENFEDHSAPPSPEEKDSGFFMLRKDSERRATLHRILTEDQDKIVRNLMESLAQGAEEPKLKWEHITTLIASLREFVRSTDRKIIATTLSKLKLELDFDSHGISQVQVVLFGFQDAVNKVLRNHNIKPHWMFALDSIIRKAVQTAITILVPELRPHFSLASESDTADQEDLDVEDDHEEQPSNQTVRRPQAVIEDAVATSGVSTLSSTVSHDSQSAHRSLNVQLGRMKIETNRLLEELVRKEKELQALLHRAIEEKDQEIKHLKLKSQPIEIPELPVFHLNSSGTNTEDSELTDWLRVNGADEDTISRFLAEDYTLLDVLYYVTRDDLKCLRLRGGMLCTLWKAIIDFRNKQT
Test: ASK1 kinase HTRF assay (HTRF KinEASE-STK, phosphorylation of biotinylated peptide substrate)
Type: biochemical
Details: 3 nM ASK1 kinase, 1 uM STK-substrate-biotin, HTRF detection; read-out: EC50
In short: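 HTRF KinEASE-STK read-out of biotinylated peptide phosphorylation. Compound incubated with 3 nM ASK1 and 1 uM STK-substrate-biotin in kinase buffer containing 5 mM MgCl2 and 1 mM DTT.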

pEC50	SMILES
> 7.30	CC(C)n1cnnc1-c1cccc(NC(=O)Nc2cc(Cl)ccn2)n1 [Compound I-181]
> 7.30	C[C@H](CO)n1cnnc1-c1cccc(NC(=O)Nc2cc(Cl)ccn2)n1 [Compound I-182]
> 7.30	C[C@@H](CO)n1cnnc1-c1cccc(NC(=O)Nc2cc(Cl)ccn2)n1 [Compound I-183]
> 7.30	CC(C)n1cnnc1-c1cccc(NC(=O)Nc2ccc(Cl)cn2)n1 [Compound I-184]
> 7.30	CC(C)n1cnnc1-c1cccc(NC(=O)Nc2cccc(Cl)n2)n1 [Compound I-185]
> 7.30	CC(C)n1cnnc1-c1cccc(NC(=O)Nc2ncccc2F)n1 [Compound I-186]
> 7.30	CC(C)n1cnnc1-c1cccc(NC(=O)Nc2cc(F)ccn2)n1 [Compound I-187]
> 7.30	CC(C)n1cnnc1-c1cccc(NC(=O)Nc2ccc(F)cn2)n1 [Compound I-188]
> 7.30	CNc1ccc(NC(=O)Nc2cccc(-c3nncn3C(C)C)n2)nc1 [Compound I-189]
> 7.30	CNc1ccnc(NC(=O)Nc2cccc(-c3nncn3C(C)C)n2)c1 [Compound I-190]
> 7.30	CC(C)n1cnnc1-c1cccc(NC(=O)Nc2cc(N(C)C)ccn2)n1 [Compound I-192]
> 7.30	CC(C)n1cnnc1-c1cccc(NC(=O)Nc2cc(C#N)ccn2)n1 [Compound I-198]
> 7.30	CC(C)n1cnnc1-c1cccc(NC(=O)Nc2ccc(C#N)cn2)n1 [Compound I-199]
6.30 to 7.30	CC(C)n1cnnc1-c1cccc(NC(=O)Nc2ncccc2C(=O)O)n1 [Compound I-201]
> 7.30	CC(C)n1cnnc1-c1cccc(NC(=O)Nc2cc(C(=O)O)ccn2)n1 [Compound I-202, 2-(3-(6-(4-Isopropyl-4H-1,2,4-triazol-3-yl)pyridin-2-yl)ureido)isonicotinic acid]
> 7.30	CC(C)n1cnnc1-c1cccc(NC(=O)Nc2cc(S(C)(=O)=O)ccn2)n1 [Compound I-204]
> 7.30	CC(C)n1cnnc1-c1cccc(NC(=O)Nc2cc(S(N)(=O)=O)ccn2)n1 [Compound I-205]
> 7.30	CC(C)n1cnnc1-c1cccc(NC(=O)Nc2ccc(CO)cn2)n1 [Compound I-208]
> 7.30	CC(C)n1cnnc1-c1cccc(NC(=O)Nc2ccc(N)cn2)n1 [Compound I-209]
> 7.30	CC(C)n1cnnc1-c1cccc(NC(=O)Nc2ccc([N+](=O)[O-])cn2)n1 [Compound I-210]
> 7.30	CC(C)n1cnnc1-c1cccc(NC(=O)Nc2cc(C(C)(C)O)ccn2)n1 [Compound I-213]
> 7.30	CC(C)n1cnnc1-c1cccc(NC(=O)Nc2ccc(C(C)(C)O)cn2)n1 [Compound I-214]
> 7.30	CC(C)n1cnnc1-c1cccc(NC(=O)Nc2ncco2)n1 [Compound I-215]
> 7.30	C[C@H](CO)n1cnnc1-c1cccc(NC(=O)Nc2nc3ccccc3o2)n1 [Compound I-217]

More lines, now with the values behind:

SMILES	pEC50
CC(C)n1cnnc1-c1cccc(NC(=O)Nc2ccc(N(C)C)cn2)n1 [Compound I-191]	> 7.30
CC(C)n1cnnc1-c1cccc(NC(=O)Nc2ncccc2C(F)(F)F)n1 [Compound I-193]	> 7.30
CC(C)n1cnnc1-c1cccc(NC(=O)Nc2ccc(C(F)(F)F)cn2)n1 [Compound I-195]	> 7.30
CC(C)n1cnnc1-c1cccc(NC(=O)Nc2cccc(C(F)(F)F)n2)n1 [Compound I-196]	> 7.30
CC(C)n1cnnc1-c1cccc(NC(=O)Nc2cccc(C#N)n2)n1 [Compound I-200]	> 7.30
CC(C)n1cnnc1-c1cccc(NC(=O)Nc2cc(S(=O)(=O)N3CCCCC3)ccn2)n1 [Compound I-206]	> 7.30
CC(C)n1cnnc1-c1cccc(NC(=O)Nc2cc(S(=O)(=O)N3CCOCC3)ccn2)n1 [Compound I-207]	> 7.30
Cc1cnc(NC(=O)Nc2cccc(-c3nncn3C(C)C)n2)nc1 [Compound I-211]	> 7.30
CC(C)n1cnnc1-c1cccc(NC(=O)Nc2ncccn2)n1 [Compound I-212]	> 7.30
CC(C)n1cnnc1-c1cccc(NC(=O)Nc2nc3ccccc3o2)n1 [Compound I-216]	> 7.30
CC(C)n1cnnc1-c1cccc(N2CCN(c3ccc(N4CCNCC4)cn3)C2=O)n1 [Compound V-01, 1-(6-(4-Isopropyl-4H-1,2,4-triazol-3-yl)pyridin-2-yl)-3-(5-(piperazin-1-yl)pyridin-2-yl)imidazolidin-2-one]	> 7.30
CC(C)n1cnnc1-c1cccc(N2CCN(c3ccc(F)cn3)C2=O)n1 [Compound V-02]	> 7.30
C[C@H](CO)n1cnnc1-c1cccc(N2CCN(c3ccc(F)cn3)C2=O)n1 [Compound V-03]	> 7.30
C[C@H](CO)n1cnnc1-c1cccc(N2CCN(c3cc4ccccc4cn3)C2=O)n1 [Compound V-04]	> 7.30
CC(C)n1cnnc1-c1cccc(N2CCN(c3ccc(-c4ccccc4)cn3)C2=O)n1 [Compound V-05]	> 7.30
CC(C)n1cnnc1-c1cccc(N2CCN(c3ccc(-c4ccc(F)cc4)cn3)C2=O)n1 [Compound V-06]	> 7.30

SMILES	pEC50
CC(C)n1cnnc1-c1cccc(N2CCN(c3ccc(-c4ccncc4)cn3)C2=O)n1 [Compound V-07]	> 7.30
C[C@H](CO)n1cnnc1-c1cccc(N2CCN(c3ccc(-c4ccccc4)cn3)C2=O)n1 [Compound V-08]	> 7.30
CC(C)n1cnnc1-c1cccc(N2CCN(c3ccc(N4CCOCC4)cc3)C2=O)n1 [Compound V-11]	> 7.30
CC(C)n1cnnc1-c1cccc(N2CCN(c3ccc(N4CCOCC4)cn3)C2=O)n1 [Compound V-12]	> 7.30
CC(C)n1cnnc1-c1cccc(N2CCN(c3ccc(N4CCOC[C@@H]4C)cn3)C2=O)n1 [Compound V-14]	> 7.30
CC(C)n1cnnc1-c1cccc(N2CCN(c3ccc(N4CC5CCC(C4)O5)cn3)C2=O)n1 [Compound V-15]	> 7.30
CC1CN(c2ccc(N3CCN(c4cccc(-c5nncn5C(C)C)n4)C3=O)nc2)CC(C)O1 (centres unmarked) [Compound V-16]	> 7.30
CC1CN(c2ccc(N3CCN(c4cccc(-c5nncn5C(C)C)n4)C3=O)nc2)CCO1 (centres unmarked) [Compound V-17]	> 7.30
C[C@H](CO)n1cnnc1-c1cccc(N2CCN(c3ccc(N4CCOCC4)cn3)C2=O)n1 [Compound V-18]	> 7.30
CC(=O)OC[C@@H](C)n1cnnc1-c1cccc(N2CCN(c3ccc(N4CCOCC4)cn3)C2=O)n1 [Compound V-19]	6.30 to 7.30
C[C@H](CO)n1cnnc1-c1cccc(N2CCN(c3ccc(N4CCNCC4)cn3)C2=O)n1 [Compound V-22]	> 7.30
C[C@H](CO)n1cnnc1-c1cccc(N2CCN(c3ccc(C(=O)N4CCCCC4)cn3)C2=O)n1 [Compound V-23]	> 7.30
CC(C)n1cnnc1-c1cccc(N2CCN(c3ccc(C(=O)N4CCOCC4)cn3)C2=O)n1 [Compound V-25]	> 7.30
C[C@H](CO)n1cnnc1-c1cccc(N2CCN(c3ccc(C(=O)N4CCOCC4)cn3)C2=O)n1 [Compound V-26]	> 7.30
C[C@H](CO)n1cnnc1-c1cccc(N2CCN(c3ccc(C(=O)N4CCNCC4)cn3)C2=O)n1 [Compound V-27]	> 7.30
Cc1ccc(N(C)C(=O)Nc2cccc(-c3nncn3C(C)C)n2)c(F)c1 [II-01, 1-(2-Fluoro-4-methylphenyl)-3-(6-(4-isopropyl-4H-1,2,4-triazol-3-yl)pyridin-2-yl)-1-methylurea]	5.30 to 6.30

Source: US11427556B2, “Urea derivatives as inhibitors of ASK1” (Hepagene Therapeutics (HK) Limited, priority 2017, dated 2022)
